From article PMC8659078, “A Validated HPLC-PDA-HRMS Method to Investigate the Biological Stability and Metabolism of Antiparasitic Triterpenic Esters” (Molecules, 2021)
Counter-ions that a name gives are not always drawn.

How the values were obtained:
in vitro = details: male, mouse, pooled liver microsomes, pH 7.4
[1] = cited from earlier work
[2] = design: method as in earlier work; details: ref 3 (supplement); cited from earlier work

Row | SMILES | bound to plasma proteins [1] | other results
1 | O=C(O)Cc1ccccc1Nc1c(Cl)cccc1Cl [Diclofenac, diclofenac sodium salt] |  | half-life (in vitro): 2.55 h
2 | C[C@H]1[C@H](C)CC[C@]2(C(=O)O)CC[C@]3(C)C(=CC[C@@H]4[C@@]5(C)C[C@@H](O)[C@H](O)[C@@](C)(CO)[C@@H]5CC[C@]43C)[C@H]12 [asiatic acid] | more than 95% | 
3 | C[C@H]1[C@H](C)CC[C@]2(C(=O)O)CC[C@]3(C)C(=CC[C@@H]4[C@@]5(C)CC[C@H](O)C(C)(C)[C@@H]5CC[C@]43C)[C@H]12 [ursolic acid] | more than 95% | 
4 | CCN(CC)CCOC(=O)c1ccc(N)cc1 [Procaine, Procaine hydrochloride] |  | time of hydrolysis by human plasma esterases into PABA [2]: ~ 10 min
5 | CC1(C)CC[C@]2(C(=O)O)CC[C@]3(C)C(=CC[C@@H]4[C@@]5(C)CC[C@H](O)C(C)(C)[C@@H]5CC[C@]43C)[C@@H]2C1 [oleanolic acid] | more than 95% | 
6 | C=C(C)[C@@H]1CC[C@]2(C(=O)O)CC[C@]3(C)[C@H](CC[C@@H]4[C@@]5(C)CC[C@H](O)C(C)(C)[C@@H]5CC[C@]43C)[C@@H]12 [betulinic acid] | more than 95% | 
